Laboratory results reported in ChEMBL document CHEMBL1152007, “The synthesis and CCK receptor affinities of selected carboyxlic acid mimics of CI-988 - a potent and selective CCK-B antagonist” (Bioorg Med Chem Lett, 1992).

Key:
[1] = target: T1, Cholecystokinin receptor type A (Rattus norvegicus, UniProt P30551); experiment: The concentration (nM) producing half-maximal inhibition of specific binding of [1251] Bolton Hunter CCK-8 to CCK receptors in the rat pancreas (CCK-A);value ranges from 1100 to 1500
T1 sequence (P30551 whole entry): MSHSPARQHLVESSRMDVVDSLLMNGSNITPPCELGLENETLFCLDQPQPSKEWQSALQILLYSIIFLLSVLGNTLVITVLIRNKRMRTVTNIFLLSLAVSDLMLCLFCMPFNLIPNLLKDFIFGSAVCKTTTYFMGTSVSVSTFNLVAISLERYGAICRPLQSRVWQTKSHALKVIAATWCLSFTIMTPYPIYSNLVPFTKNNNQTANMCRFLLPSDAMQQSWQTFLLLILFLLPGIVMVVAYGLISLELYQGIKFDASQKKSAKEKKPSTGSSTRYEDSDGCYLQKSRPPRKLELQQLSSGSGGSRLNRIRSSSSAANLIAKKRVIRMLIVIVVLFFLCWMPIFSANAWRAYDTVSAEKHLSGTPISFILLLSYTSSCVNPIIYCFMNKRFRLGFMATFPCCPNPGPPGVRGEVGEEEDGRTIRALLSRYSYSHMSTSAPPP

[2] = target: T2, Gastrin/cholecystokinin type B receptor (Mus musculus, UniProt P56481); experiment: The concentration (nM) producing half-maximal inhibition of specific binding of [1251] Bolton Hunter CCK-8 to CCK receptors in the mouse cerebral cortex (CCK-B);value ranges from 5.3 to 7.7; assay type: tissue-based
T2 sequence (P56481 whole entry): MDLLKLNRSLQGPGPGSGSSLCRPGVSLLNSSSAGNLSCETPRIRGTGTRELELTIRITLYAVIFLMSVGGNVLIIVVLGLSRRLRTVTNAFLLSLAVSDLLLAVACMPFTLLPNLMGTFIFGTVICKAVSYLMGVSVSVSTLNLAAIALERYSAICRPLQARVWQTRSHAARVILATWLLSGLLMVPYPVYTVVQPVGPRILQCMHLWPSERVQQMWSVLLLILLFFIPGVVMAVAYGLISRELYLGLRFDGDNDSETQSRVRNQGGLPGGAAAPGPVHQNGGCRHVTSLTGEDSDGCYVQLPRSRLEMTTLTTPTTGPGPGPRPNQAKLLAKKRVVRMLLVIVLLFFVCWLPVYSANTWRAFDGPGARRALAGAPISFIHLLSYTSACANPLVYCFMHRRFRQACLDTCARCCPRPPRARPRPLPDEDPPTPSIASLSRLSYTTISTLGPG

[3] = Dissociation constant, pKa was determined; assay type: physicochemical
[4] = target: T2, Gastrin/cholecystokinin type B receptor; experiment: The concentration (nM) producing half-maximal inhibition of specific binding of [1251] Bolton Hunter CCK-8 to CCK receptors in the mouse cerebral cortex (CCK-B);value ranges from 62 to 98; assay type: tissue-based
[5] = target: T1, Cholecystokinin receptor type A; experiment: The concentration (nM) producing half-maximal inhibition of specific binding of [1251] Bolton Hunter CCK-8 to CCK receptors in the rat pancreas (CCK-A);value ranges from 620 to 770
[6] = target: T2, Gastrin/cholecystokinin type B receptor; experiment: The concentration (nM) producing half-maximal inhibition of specific binding of [1251] Bolton Hunter CCK-8 to CCK receptors in the mouse cerebral cortex (CCK-B);value ranges from 63 to 170; assay type: tissue-based
[7] = target: T1, Cholecystokinin receptor type A; experiment: The concentration (nM) producing half-maximal inhibition of specific binding of [1251] Bolton Hunter CCK-8 to CCK receptors in the rat pancreas (CCK-A); value ranges from 680 to 970
[8] = target: T1, Cholecystokinin receptor type A; experiment: The concentration (nM) producing half-maximal inhibition of specific binding of [1251] Bolton Hunter CCK-8 to CCK receptors in the rat pancreas (CCK-A); value ranges from 1000 to 1100
[9] = target: T2, Gastrin/cholecystokinin type B receptor; experiment: The concentration (nM) producing half-maximal inhibition of specific binding of [1251] Bolton Hunter CCK-8 to CCK receptors in the mouse cerebral cortex (CCK-B);value ranges from 3.0 to 8.1; assay type: tissue-based
[10] = target: T2, Gastrin/cholecystokinin type B receptor; experiment: The concentration (nM) producing half-maximal inhibition of specific binding of [1251] Bolton Hunter CCK-8 to CCK receptors in the mouse cerebral cortex (CCK-B);value ranges from 22 to 24; assay type: tissue-based
[11] = Dissociation constant, pKa was determined; experiment 1; assay type: physicochemical
[12] = target: T1, Cholecystokinin receptor type A; experiment: The concentration (nM) producing half-maximal inhibition of specific binding of [1251] Bolton Hunter CCK-8 to CCK receptors in the rat pancreas (CCK-A);value ranges from 2300 to 3500
[13] = Dissociation constant, pKa was determined; experiment 2; assay type: physicochemical
[14] = target: T2, Gastrin/cholecystokinin type B receptor; experiment: The concentration (nM) producing half-maximal inhibition of specific binding of [1251] Bolton Hunter CCK-8 to CCK receptors in the mouse cerebral cortex (CCK-B);value ranges from 8.6 to 32; assay type: tissue-based
[15] = target: T1, Cholecystokinin receptor type A; experiment: The concentration (nM) producing half-maximal inhibition of specific binding of [1251] Bolton Hunter CCK-8 to CCK receptors in the rat pancreas (CCK-A);value ranges from 900 to 1900

CC(Cc1c[nH]c2ccccc12)(NC(=O)OC1C2CC3CC(C2)CC1C3)C(=O)NC[C@H](NC(=O)CCC(=O)Nc1nn[nH]n1)c1ccccc1 (single isomer, unassigned)
IC50 [1]: 1200 nM | IC50 [2]: 6.3 nM | pKa [3]: 5.2

CC(Cc1c[nH]c2ccccc12)(NC(=O)OC1C2CC3CC(C2)CC1C3)C(=O)NC[C@H](NC(=O)CCNS(=O)(=O)C(F)(F)F)c1ccccc1 (single isomer, unassigned)
IC50 [4]: 77 nM | pKa [3]: 7.9 | IC50 [5]: 680 nM

C[C@@](Cc1c[nH]c2ccccc12)(NC(=O)OC1C2CC3CC(C2)CC1C3)C(=O)NC[C@H](NC(=O)CCC(=O)O)c1ccccc1 (stereo not given in full)
pKa [3]: 5.6

CC(Cc1c[nH]c2ccccc12)(NC(=O)OC1C2CC3CC(C2)CC1C3)C(=O)NC[C@H](NC(=O)CCNC(=O)C(F)(F)F)c1ccccc1 (single isomer, unassigned)
IC50 [6]: 89 nM | IC50 [7]: 800 nM | pKa [3]: > 9.5

CC(Cc1c[nH]c2ccccc12)(NC(=O)OC1C2CC3CC(C2)CC1C3)C(=O)NC[C@H](NC(=O)CCc1nnn[nH]1)c1ccccc1 (single isomer, unassigned)
IC50 [8]: 1070 nM | IC50 [9]: 5.6 nM | pKa [3]: 5.4

CC(Cc1c[nH]c2ccccc12)(NC(=O)OC1C2CC3CC(C2)CC1C3)C(=O)NC[C@H](NC(=O)CCP(=O)(O)O)c1ccccc1 (single isomer, unassigned)
IC50 [10]: 23 nM | pKa [11]: 3.4 | IC50 [12]: 2700 nM | pKa [13]: 7.8

CC(Cc1c[nH]c2ccccc12)(NC(=O)OC1C2CC3CC(C2)CC1C3)C(=O)NC[C@H](NC(=O)CCC(=O)NO)c1ccccc1 (single isomer, unassigned)
IC50 [14]: 14 nM | IC50 [15]: 1800 nM | pKa [3]: > 9.5
